Test systems include OVCAR-3; HCC 2998; HCT-15; SK-MEL-5; HOP-92; UACC-257; HOP-62; TK-10; IGROV-1; UO-31; SW-620; HCT-116; K562; RPMI-8226; CCRF-CEM; RXF 393; NCI-H522; EKVX; KM12.
What all share (assay): NCI-60 cell line screen, 48 h

Consider twelve molecules from ChEMBL document CHEMBL1201862, “PubChem BioAssay data set” (2004).

Molecules are shown by their SMILES.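 Where inhibition never reached the appropriate level, the endpoint shown equals the highest concentration tested. Otherwise, values were interpolated linearly from a five-concentration, 48-hour dose response in 96-well plates. At the GI50, growth is halved.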 Active and inactive are the calls of the source. No stated cut-off is given here; in the data, active = GI50 up to about 1.1 µM and inactive = higher. Bounds are passed on as bounds.

For `COC(=O)C(Br)C1CCc2ccccc21` (stereo unspecified), the GI50 in the assay with OVCAR-3 was 63.1 µM (inactive); in the assay on HCC 2998, > 100 µM (inactive); in the assay on HCT-15, more than 100 µM; in the assay on SK-MEL-5 it was > 100 µM (inactive); in the assay on HOP-92, > 100 µM (inactive); with UACC-257 it was > 100 µM (inactive). Moreover, the GI50 in the assay with HOP-62, in the assay on TK-10, with IGROV-1, in the assay with UO-31, in the assay on SW-620 and in the assay on HCT-116 was > 100 µM (inactive) throughout. The GI50 in the assay on K562 is 52.7 µM (inactive); in the assay on RPMI-8226, 71.9 µM (inactive); in the assay on CCRF-CEM, 48.1 µM (inactive).
As to `CC(=O)NNc1nc(C)c(C(=O)/C=C/c2ccc(/C=C/C(=O)c3sc(NNC(C)=O)nc3C)cc2)s1`, the GI50 in the assay on OVCAR-3 is > 100 µM (inactive); in the assay with HCC 2998, > 100 µM (inactive); with HCT-15, more than 100 µM; in the assay on RXF 393, > 100 µM (inactive); with UACC-257, > 100 µM (inactive); in the assay on NCI-H522, > 100 µM (inactive). Also, the GI50 with HOP-62 is > 100 µM (inactive); in the assay on TK-10, > 100 µM (inactive); in the assay on IGROV-1 it was > 100 µM (inactive); in the assay on EKVX it was 57.3 µM (inactive); in the assay with UO-31, > 100 µM (inactive); with SW-620, > 100 µM (inactive). In addition, the GI50 in the assay on KM12, in the assay on HCT-116, with K562 and in the assay with CCRF-CEM was > 100 µM (inactive) throughout.
For the molecule `CCOC1c2cc(C(C)C)c(O)c(O)c2[C@@]23CCCC(C)(C)C2C1OC3=O` (stereo partly specified), the GI50 with OVCAR-3 is 84.5 µM (inactive); with HCC 2998, > 100 µM (inactive); in the assay with HCT-15, 91 µM; in the assay with RXF 393, 30.3 µM (inactive); with SK-MEL-5 it was 70.3 µM (inactive); in the assay with UACC-257, > 100 µM (inactive). Moreover, the GI50 was 30.6 µM (inactive) in the assay with NCI-H522; > 100 µM (inactive) with HOP-62; > 100 µM (inactive) in the assay with TK-10; > 100 µM (inactive) with IGROV-1; > 100 µM (inactive) in the assay on EKVX; 35.8 µM (inactive) in the assay with UO-31. The GI50 was > 100 µM (inactive) with SW-620; > 100 µM (inactive) in the assay on HCT-116; > 100 µM (inactive) in the assay on K562; 40.6 µM (inactive) in the assay with RPMI-8226; 47.4 µM (inactive) in the assay with CCRF-CEM.
Take `CC(C)C1=CC(=O)C(C)(C2=NC(C)(C)CO2)c2ccccc21` (stereo unspecified): the GI50 in the assay on OVCAR-3 is > 100 µM (inactive); in the assay with HCT-15 it was more than 100 µM; in the assay with RXF 393 it was > 100 µM (inactive); in the assay on SK-MEL-5, > 100 µM (inactive); in the assay with HOP-92, > 100 µM (inactive); with UACC-257, 63.8 µM (inactive). Besides, the GI50 was 32.9 µM (inactive) with NCI-H522; > 100 µM (inactive) with HOP-62; > 100 µM (inactive) with TK-10; > 100 µM (inactive) in the assay on IGROV-1; 96.6 µM (inactive) with EKVX; 61.2 µM (inactive) in the assay with UO-31. Besides, the GI50 was > 100 µM (inactive) with SW-620; > 100 µM (inactive) with KM12; > 100 µM (inactive) in the assay with HCT-116; 50.4 µM (inactive) in the assay on K562; 78.2 µM (inactive) with RPMI-8226; > 100 µM (inactive) in the assay with CCRF-CEM.
Take `N#CCC(=O)Nc1cccc(C(F)(F)F)c1`: the GI50 in the assay with OVCAR-3 was 84.3 µM (inactive); in the assay on HCC 2998, > 100 µM (inactive); in the assay with HCT-15, more than 100 µM; with RXF 393, > 100 µM (inactive); with SK-MEL-5, > 100 µM (inactive); with UACC-257, > 100 µM (inactive). Besides, the GI50 with NCI-H522, in the assay on HOP-62, in the assay on TK-10, with IGROV-1, in the assay on EKVX and in the assay on UO-31 was > 100 µM (inactive) each time. The GI50 with SW-620 was > 100 µM (inactive); in the assay on KM12, > 100 µM (inactive); with HCT-116, > 100 µM (inactive); in the assay on K562, > 10 µM (inactive); in the assay on CCRF-CEM it was > 100 µM (inactive).
Take `Cc1c(Cl)ccc2c1NC(=O)C2(O)C(C(=O)c1ccccc1)c1ccccc1` (stereo unspecified): the GI50 in the assay on OVCAR-3 is > 10 µM (inactive); with HCC 2998, 97.9 µM (inactive); with HCT-15, 45.7 µM; in the assay with RXF 393, 27.5 µM (inactive); in the assay on SK-MEL-5, 23.3 µM (inactive); with UACC-257, 28.7 µM (inactive). Also, the GI50 was 27.7 µM (inactive) in the assay on NCI-H522; > 100 µM (inactive) in the assay on HOP-62; 52 µM (inactive) in the assay with TK-10; > 100 µM (inactive) in the assay with IGROV-1; 43.3 µM (inactive) with EKVX; 76.6 µM (inactive) with UO-31. For the same molecule, the GI50 in the assay with SW-620 is 42.4 µM (inactive); in the assay on KM12 it was 55.3 µM (inactive); with HCT-116 it was 75.9 µM (inactive); in the assay on K562 it was 31.1 µM (inactive); in the assay with RPMI-8226, 25.9 µM (inactive); in the assay on CCRF-CEM it was 14.7 µM (inactive).
With `COC(=O)C1CCc2nnc(-c3cccnc3)n21` (stereo unspecified), the GI50 is > 100 µM (inactive) in the assay with OVCAR-3; > 100 µM (inactive) with HCC 2998; more than 100 µM with HCT-15; > 100 µM (inactive) with RXF 393; > 100 µM (inactive) in the assay with SK-MEL-5; > 100 µM (inactive) with UACC-257. Also, the GI50 with NCI-H522, in the assay with HOP-62, with TK-10, in the assay on IGROV-1, in the assay on EKVX and with UO-31 was > 100 µM (inactive) throughout. Also, the GI50 with SW-620, in the assay with KM12, with HCT-116, in the assay on K562, with RPMI-8226 and in the assay with CCRF-CEM was > 100 µM (inactive) throughout.
Consider `CC(=O)c1ccccc1NC(=O)C(=O)C(C(=O)c1ccccc1-c1ccccc1)C1OC(=O)c2ccccc21` (stereo unspecified), for which the GI50 is 20.7 µM (inactive) in the assay on OVCAR-3; 16.2 µM (inactive) in the assay with HCC 2998; 19.7 µM in the assay on HCT-15; 11.5 µM (inactive) in the assay with RXF 393; 19.1 µM (inactive) in the assay with SK-MEL-5; 15.7 µM (inactive) in the assay with UACC-257. The GI50 in the assay with NCI-H522 was 14.7 µM (inactive); with HOP-62, 20.1 µM (inactive); in the assay on TK-10 it was 14.9 µM (inactive); in the assay on IGROV-1 it was 22.2 µM (inactive); in the assay on EKVX it was 29.7 µM (inactive); with UO-31 it was 18.2 µM (inactive). The GI50 in the assay on SW-620 is 34.3 µM (inactive); with KM12, 18 µM (inactive); in the assay on HCT-116, 17.8 µM (inactive); in the assay with K562, 25.3 µM (inactive); with RPMI-8226, 27.3 µM (inactive); in the assay with CCRF-CEM it was 25.1 µM (inactive).
`Brc1ccc(C[P+]2(c3ccccc3)CCCCC2)cc1.[O-][Cl+3]([O-])([O-])[O-]`: the GI50 was 43.6 µM (inactive) with OVCAR-3; 36.9 µM (inactive) in the assay on HCC 2998; more than 100 µM in the assay with HCT-15; > 100 µM (inactive) in the assay on RXF 393; 17.5 µM (inactive) in the assay on SK-MEL-5; 23.9 µM (inactive) in the assay on UACC-257. Besides, the GI50 is 19 µM (inactive) in the assay with NCI-H522; > 100 µM (inactive) in the assay on HOP-62; 99.5 µM (inactive) in the assay on TK-10; 81.3 µM (inactive) in the assay with IGROV-1; > 100 µM (inactive) with EKVX; > 100 µM (inactive) in the assay with UO-31. For the same molecule, the GI50 with SW-620 is 79.1 µM (inactive); in the assay on KM12, 56.1 µM (inactive); in the assay on HCT-116 it was 68.7 µM (inactive); in the assay with K562 it was 77.4 µM (inactive); in the assay with RPMI-8226, 25.8 µM (inactive); with CCRF-CEM, 82 µM (inactive).
Regarding `CC(=O)Nc1ccc(S(=O)(=O)N/N=C(\C)CN2C(=O)c3ccccc3C2=O)cc1`, the GI50 in the assay with OVCAR-3 was > 100 µM (inactive); in the assay on HCC 2998 it was > 100 µM (inactive); in the assay on HCT-15, more than 100 µM; in the assay with SK-MEL-5 it was > 100 µM (inactive); in the assay with UACC-257, > 100 µM (inactive); with NCI-H522, > 100 µM (inactive). Further, the GI50 with HOP-62, in the assay on TK-10, in the assay with IGROV-1, in the assay on EKVX, in the assay on UO-31 and in the assay on SW-620 was > 100 µM (inactive) each time. In addition, the GI50 in the assay on KM12, in the assay with HCT-116, in the assay with K562, in the assay on RPMI-8226 and in the assay on CCRF-CEM was > 100 µM (inactive) in each case.
`Cc1ccc(NC(=O)C(=O)Cc2cccc[n+]2[O-])cc1C`: the GI50 in the assay on OVCAR-3 was > 100 µM (inactive); with HCC 2998, > 100 µM (inactive); in the assay on HCT-15, more than 100 µM; with RXF 393, > 100 µM (inactive); in the assay with SK-MEL-5 it was > 100 µM (inactive); with UACC-257, > 100 µM (inactive). Also, the GI50 in the assay with NCI-H522, in the assay with HOP-62, in the assay with TK-10, with IGROV-1, in the assay with EKVX and in the assay with UO-31 was > 100 µM (inactive) each time. The GI50 in the assay on SW-620, with KM12, in the assay with HCT-116, with K562, with RPMI-8226 and in the assay with CCRF-CEM was > 100 µM (inactive) in each case.
Take `c1cnc2c(c1)-n1cccc1C1(CCSCC1)NN2`: the GI50 with OVCAR-3 was > 100 µM (inactive); in the assay on HCC 2998, > 100 µM (inactive); with HCT-15, 80.2 µM; with SK-MEL-5, > 100 µM (inactive); with UACC-257, 90.2 µM (inactive); with NCI-H522, 95.3 µM (inactive). In addition, the GI50 was > 100 µM (inactive) in the assay on HOP-62; 42.6 µM (inactive) with TK-10; > 100 µM (inactive) in the assay with EKVX; 32.4 µM (inactive) in the assay with UO-31; > 100 µM (inactive) with SW-620; > 100 µM (inactive) in the assay on KM12. In addition, the GI50 in the assay on HCT-116 is > 100 µM (inactive); in the assay on K562, 89.5 µM (inactive); with RPMI-8226, > 100 µM (inactive); with CCRF-CEM, > 100 µM (inactive).
